Results reported in PMC9286277, “Enzymatic measurement of short-chain fatty acids and application in periodontal disease diagnosis” (PLoS ONE, 2022).

Assays:
Settings in all cases: ATP, Mg2+; 0.1 M Tris-HCl pH 7.5; 37°C
[1] = target: T1, His-tagged BK (butyrate kinase; ToBKIII) (Thermosediminibacter oceani, UniProt D9S2G7); test: coupled ADP-hexokinase/G6PDH NADPH assay; format: biochemical
T1 construct: gene buk; entire gene (about 1,100 bp, about 360 residues) NdeI/HindIII in pET21a(+), E. coli BL21(DE3), Ni column; C-terminal vector His tag; sense primer encodes N-terminus MTFYGILA; antisense primer encodes C-terminus EKPKEYL before HindIII site (KL)
T1 sequence (D9S2G7 1-357): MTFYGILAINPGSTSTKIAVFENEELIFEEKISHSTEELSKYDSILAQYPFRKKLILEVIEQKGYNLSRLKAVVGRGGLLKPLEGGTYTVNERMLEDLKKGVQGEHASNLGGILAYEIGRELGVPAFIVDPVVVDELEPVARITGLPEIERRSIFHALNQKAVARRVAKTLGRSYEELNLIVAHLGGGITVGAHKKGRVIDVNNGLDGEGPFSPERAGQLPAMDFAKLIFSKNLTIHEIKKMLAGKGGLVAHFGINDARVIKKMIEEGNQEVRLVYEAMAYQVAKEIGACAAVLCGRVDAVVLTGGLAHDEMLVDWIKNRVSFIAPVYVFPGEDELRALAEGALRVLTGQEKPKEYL
Source text: coupled ADP-hexokinase/G6PDH NADPH assay on His-tagged BK (butyrate kinase; ToBKIII)

PK (propionate kinase) = system: T2, PK (propionate kinase)
T2 construct: gene tdcD
Source text: coupled ADP-hexokinase/G6PDH NADPH assay on PK (propionate kinase)

AK (acetate kinase) = target: T3, AK (acetate kinase) (Escherichia coli, UniProt P0A6A3)
T3 construct: gene ackA
T3 sequence (P0A6A3 whole entry): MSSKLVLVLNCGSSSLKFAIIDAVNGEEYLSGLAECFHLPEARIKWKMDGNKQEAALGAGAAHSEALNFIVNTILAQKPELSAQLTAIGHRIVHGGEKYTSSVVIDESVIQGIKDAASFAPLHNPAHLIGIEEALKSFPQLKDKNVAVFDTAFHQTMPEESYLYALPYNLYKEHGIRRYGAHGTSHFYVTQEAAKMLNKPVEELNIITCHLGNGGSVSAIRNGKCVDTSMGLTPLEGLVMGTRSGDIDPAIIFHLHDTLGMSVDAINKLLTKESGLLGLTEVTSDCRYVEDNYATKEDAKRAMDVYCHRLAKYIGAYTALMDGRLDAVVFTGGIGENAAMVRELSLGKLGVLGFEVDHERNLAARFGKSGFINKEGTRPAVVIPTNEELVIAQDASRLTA
Source text: coupled ADP-hexokinase/G6PDH NADPH assay on AK (acetate kinase)

Compound | BK / Km [1] [mmol] | PK / Km (PK (propionate kinase)) [mmol] | AK / Km (AK (acetate kinase)) [mmol]
CCC(=O)O [C3, propionic acid] | 5.1 | 1.8 | –
CCCCC(=O)O [C5, valeric acid] | 3.3 | – | –
CCCC(=O)O [C4, butyric acid] | 2.2 | 280 | –
CC(C)CC(=O)O [IC5, isovaleric acid] | 2.1 | – | –
CC(C)C(=O)O [IC4, isobutyric acid] | 3.2 | – | –
CC(=O)O [C2, acetic acid] | – | 13.2 | 9.1
CCCCCC(=O)O [C6, caproic acid] | 8.7 | – | –
